Measurements from ChEMBL document CHEMBL5053500, “Nitric Oxide Induction in Peritoneal Macrophages by a 1,2,3-Triazole Derivative Improves Its Efficacy upon Leishmania amazonensis In Vitro Infection” (J Med Chem, 2021).
The source made the active and inactive calls. The rule behind the calls is not given here.

What was measured:
[1] = Selectivity index, ratio of CC50 for cytotoxicity against BALB/c mouse peritoneal macrophages to IC50 for antileishmanial activity against Leishmania amazonensis (MHOM/BR/76/MA-76) promastigotes; format: toxicity; conditions: read-out: Ratio CC50/IC50
Leishmania amazonensis [2] = assay: Antileishmanial activity against Leishmania amazonensis (MHOM/BR/76/MA-76) promastigotes assessed as reduction in parasite growth incubated for 24 hrs by MTT assay; format: functional, organism-based; conditions: MHOM/BR/76/MA-76, 24 h
[3] = Cytotoxicity against human CCD-1072Sk cells assessed as reduction in cell viability at <400 uM measured after 24 hrs by MTT assay; format: cell-based
[4] = Cytotoxicity against BALB/c mouse peritoneal macrophages assessed as reduction in cell viability incubated for 24 hrs by MTT assay; format: cell-based, Peritoneal macrophage
[5] = Inhibition of iNOS expression in BALB/c mouse peritoneal macrophages stimulated with Leishmania amazonensis assessed as decrease in nitrite levels at 200 nM pretreated for 1 hr followed by parasite stimulation and measured after 48 hrs by Griess reagent based assay; format: functional, Peritoneal macrophage; conditions: time 49 hrs
[6] = Selectivity ratio of IC50 for antileishmanial activity against Leishmania amazonensis (MHOM/BR/76/MA-76) promastigotes to IC50 for antileishmanial activity against Leishmania amazonensis (MHOM/BR/76/MA-76) intracellular amastigotes infected in BALB/c mouse peritoneal macrophages; format: functional
Peritoneal macrophage [7] = assay: Upregulation of IL-1beta mRNA expression in BALB/c mouse peritoneal macrophages stimulated with Leishmania amazonensis at 50 uM measured after 48 hrs by qRT-PCR analysis; format: functional, tissue-based
[8] = Selectivity index, ratio of CC50 for cytotoxicity against BALB/c mouse peritoneal macrophage to IC50 for antileishmanial activity against Leishmania amazonensis (MHOM/BR/76/MA-76) intracellular amastigotes infected in BALB/c mouse peritoneal macrophages; format: toxicity, cell-based; conditions: read-out: Ratio CC50/IC50
Leishmania amazonensis [9] = assay: (§1) Antileishmanial activity against Leishmania amazonensis (MHOM/BR/76/MA-76) intracellular amastigotes infected in BALB/c mouse peritoneal macrophages assessed as number of amastigotes per cell at 15.52 uM measured after 24 hrs by Giemsa's azur-eosin-methylene blue staining based light microscopy analysis; format: functional, Peritoneal macrophage
Peritoneal macrophage [10] = assay: Upregulation of IL-10 mRNA expression in BALB/c mouse peritoneal macrophages stimulated with Leishmania amazonensis at 50 uM measured after 48 hrs by qRT-PCR analysis; format: functional, tissue-based
Leishmania amazonensis [11] = assay: as §1, with “per 100 cells” for “per cell”; format: functional, Peritoneal macrophage
Peritoneal macrophage [12] = assay: Cytotoxicity against BALB/C mouse peritoneal macrophages assessed as reduction in cell viability at 100 uM measured after 24 hrs by MTT assay relative to control; format: cell-based
[13] = Inhibition of iNOS expression in BALB/C mouse peritoneal macrophages stimulated with Leishmania amazonensis assessed as decrease in nitrite levels at 50 uM pretreated with 1400W for 1 hr followed by parasite stimulation and measured after 48 hrs by Griess reagent based assay (Rvb= 2.60 +/- -.236 uM); format: functional, Peritoneal macrophage
Leishmania amazonensis [14] = assay: Antileishmanial activity against Leishmania amazonensis (MHOM/BR/76/MA-76) intracellular amastigotes infected in BALB/c mouse peritoneal macrophages assessed as upward shift in concentration response curves of parasite viability incubated for 24 hrs by Giemsa's azur-eosin-methyle blue staining based light microscopy analysis; format: functional, organism-based; conditions: Peritoneal macrophage
Leishmania amazonensis [15] = assay: (§2) Antileishmanial activity against Leishmania amazonensis (MHOM/BR/76/MA-76) intracellular amastigotes infected in BALB/c mouse peritoneal macrophages assessed as decrease in number of amastigotes per infected cells at 20 to 40 uM incubated for 24 hrs by Giemsa's azur-eosin-methyle blue staining based light microscopy analysis; format: functional, organism-based; conditions: Peritoneal macrophage, dose 20-40 µM
[16] = Inhibition of iNOS expression in BALB/c mouse peritoneal macrophages assessed as decrease in LPS induced nitrite levels at 50 uM pretreated with 1400W for 1 hr followed by LPS stimulation further treated with test compound and measured after 48 hrs by Griess reagent based assay (Rvb= 4.27 +/- 0.432 uM); format: functional, Peritoneal macrophage
Peritoneal macrophage [17] = assay: Induction of NO production in BALB/C mouse peritoneal macrophages infected with Leishmania amazonensis assessed as nitrite levels at 50 uM measured after 48 hrs by Griess reagent based assay (Rvb= 4.11 +/- 0.156 uM); format: functional
Leishmania amazonensis [18] = assay: Induction of morphological changes in Leishmania amazonensis (MHOM/BR/76/MA-76) promastigotes assessed as formation of membrane profiles near the flagellar pocket at IC50 incubated for 24 hrs by transmission electron microscopy analysis; format: functional, organism-based
Leishmania amazonensis [19] = assay: as §1, with “per 100 cells” for “per cell”, “uM pretreated with 1400W for 1 hr followed by test compound addition” for “uM”; format: functional, Peritoneal macrophage
Leishmania amazonensis [20] = assay: as §1, with “percentage” for “number”, “infected cells” for “amastigotes per cell”; format: functional, Peritoneal macrophage
Leishmania amazonensis [21] = assay: Induction of morphological changes in Leishmania amazonensis (MHOM/BR/76/MA-76) promastigotes assessed as formation of small vesicles surrounded by a membrane in cytoplasm at IC50 incubated for 24 hrs by transmission electron microscopy analysis; format: functional, organism-based
[22] = Upregulation of iNOS mRNA expression in BALB/c mouse peritoneal macrophages at 50 uM measured after 48 hrs by qRT-PCR analysis relative to control; format: functional, Peritoneal macrophage
Leishmania amazonensis [23] = assay: Antileishmanial activity against Leishmania amazonensis (MHOM/BR/76/MA-76) intracellular amastigotes infected in BALB/c mouse peritoneal macrophages assessed as reduction in parasite growth incubated for 24 hrs by Giemsa's azur-eosin-methyle blue staining based light microscopy analysis; format: functional, organism-based; conditions: MHOM/BR/76/MA-76, Peritoneal macrophage
Leishmania amazonensis [24] = assay: as §2, with “per 100” for “per infected”, “at 10” for “at 20”; format: functional, organism-based; conditions: Peritoneal macrophage, dose 10-40 µM
[25] = Upregulation of iNOS mRNA expression in BALB/c mouse peritoneal macrophages stimulated with Leishmania amazonensis at 50 uM measured after 48 hrs by qRT-PCR analysis; format: functional, Peritoneal macrophage
Leishmania amazonensis [26] = assay: Induction of morphological changes in Leishmania amazonensis (MHOM/BR/76/MA-76) promastigotes assessed as kinetoplast swelling at IC50 incubated for 24 hrs by transmission electron microscopy analysis; format: functional, organism-based
Peritoneal macrophage [27] = assay: Induction of NO production in BALB/C mouse peritoneal macrophages assessed as nitrite levels at 50 uM measured after 48 hrs by Griess reagent based assay (Rvb= 3.22 +/- 0.570 uM); format: functional
Peritoneal macrophage [28] = assay: Upregulation of TNF-alpha mRNA expression in BALB/c mouse peritoneal macrophages stimulated with Leishmania amazonensis at 50 uM measured after 48 hrs by qRT-PCR analysis; format: functional, tissue-based
Peritoneal macrophage [29] = assay: Induction of NO production in BALB/C mouse peritoneal macrophages assessed as nitrite levels at 100 uM measured after 48 hrs by Griess reagent based assay (Rvb= 3.22 +/- 0.570 uM); format: functional
Leishmania amazonensis [30] = assay: Antileishmanial activity against Leishmania amazonensis (MHOM/BR/76/MA-76) promastigotes assessed as upward shift in concentration response curves of parasite viability incubated for 24 hrs by MTT assay; format: functional, organism-based
Peritoneal macrophage [31] = assay: Upregulation of IL-12 mRNA expression in BALB/c mouse peritoneal macrophages stimulated with Leishmania amazonensis at 50 uM measured after 48 hrs by qRT-PCR analysis; format: functional, tissue-based
Leishmania amazonensis [32] = assay: as §1, with “percentage” for “number”, “infected cells” for “amastigotes per cell”, “uM pretreated with 1400W for 1 hr followed by test compound addition” for “uM”; format: functional, Peritoneal macrophage
Leishmania amazonensis [33] = assay: as §1, with “uM pretreated with 1400W for 1 hr followed by test compound addition” for “uM”; format: functional, Peritoneal macrophage
Leishmania amazonensis [34] = assay: Induction of morphological changes in Leishmania amazonensis (MHOM/BR/76/MA-76) promastigotes assessed as lipid inclusions at IC50 incubated for 24 hrs by transmission electron microscopy analysis; format: functional, organism-based
Peritoneal macrophage [35] = assay: Upregulation of IL-6 mRNA expression in BALB/c mouse peritoneal macrophages stimulated with Leishmania amazonensis at 50 uM measured after 48 hrs by qRT-PCR analysis; format: functional, tissue-based
Leishmania amazonensis [36] = assay: Antileishmanial activity against Leishmania amazonensis (MHOM/BR/76/MA-76) intracellular amastigotes infected in BALB/c mouse peritoneal macrophages assessed as low amastigote mean at 5 to 40 uM incubated for 24 hrs by Giemsa's azur-eosin-methyle blue staining based light microscopy analysis; format: functional, organism-based; conditions: Peritoneal macrophage, dose 5-40 µM

For `OC(c1ccccc1)c1cn(-c2ccc(Br)cc2)nn1` (configuration not stated), the selectivity ratio [1] was > 2, the IC50 (Leishmania amazonensis [2]) was > 200 µM and the Activity [3] was “Non-Toxic”. For the same compound, the CC50 at 24 h [4] was > 400 µM.
Work on `CC(=N)NCc1cccc(CN)c1.Cl.Cl` yielded an Activity [5] of 2.06 µM.
In the case of `OC(c1ccc(Br)cc1)c1cn(-c2ccc(Br)cc2)nn1` (configuration not stated), the “Ratio IC50” value [6] is reported as 3.7, the Activity (Peritoneal macrophage [7]) is reported as “Active” and the selectivity ratio [8] is reported as 20.5. For the same compound, the Activity (Leishmania amazonensis [9]) was 2.86, the Activity (Peritoneal macrophage [10]) was “inactive” and the Activity (Leishmania amazonensis [11]) was 169.38. For the same compound, the Activity (Peritoneal macrophage [12]) was 65.79%, the Activity [13] was 3.06 µM and the Activity (Leishmania amazonensis [14]) was “Active”. For the same compound, the Activity (Leishmania amazonensis [15]) was “Active”, the Activity [16] was 2.65 µM and the Activity (Peritoneal macrophage [17]) was 9.37 µM. For the same compound, the Activity (Leishmania amazonensis [18]) was “Active”, the Activity (Leishmania amazonensis [19]) was 288.25 and the Activity (Leishmania amazonensis [20]) was 55.6. The Activity (Leishmania amazonensis [21]) was “Active”, the “fold change (FC)” value [22] was 12.28 and the IC50 (Leishmania amazonensis [23]) was 4.1 µM. The Activity (Leishmania amazonensis [24]) was “Active”, the selectivity ratio [1] was 5.41 and the “fold change (FC)” value [25] was 24.47. For the same compound, the Activity (Leishmania amazonensis [26]) was “Active”, the Activity (Peritoneal macrophage [27]) was 4.63 µM and the Activity (Peritoneal macrophage [28]) was “Active”. For the same compound, the Activity (Peritoneal macrophage [29]) was 4.34 µM, the Activity (Leishmania amazonensis [30]) was “Active” and the IC50 (Leishmania amazonensis [2]) was 15.5 µM. For the same compound, the Activity (Peritoneal macrophage [31]) was “inactive”, the Activity (Leishmania amazonensis [32]) was 79.6 and the Activity (Leishmania amazonensis [33]) was 3.68. For the same compound, the Activity (Leishmania amazonensis [34]) was “Active”, the Activity (Peritoneal macrophage [35]) was “inactive” and the Activity [3] was “Non-Toxic”. For the same compound, the Activity (Leishmania amazonensis [36]) was “Active” and the CC50 at 24 h [4] was 84 µM.
In the case of `COC(=O)c1ccc(-n2cc(C(O)c3cccnc3-c3ccccc3)nn2)cc1` (configuration not stated), the selectivity ratio [1] is reported as > 4.17, the IC50 (Leishmania amazonensis [2]) is reported as 95.9 µM and the Activity [3] is reported as “Non-Toxic”. The CC50 at 24 h [4] was > 400 µM.
With `O=c1ccc2cc(-n3cc(C(O)c4ccccc4-c4ccccc4)nn3)ccc2o1` (configuration not stated) the selectivity ratio [1] was < 0.7, the IC50 (Leishmania amazonensis [2]) was > 200 µM and the Activity [3] was “Non-Toxic”. It also gave a CC50 at 24 h [4] of 141 µM.
In the case of `OC(c1cn(-c2ccc(Br)cc2)nn1)c1ccccc1F` (configuration not stated), the selectivity ratio [1] is reported as > 3.62, the IC50 (Leishmania amazonensis [2]) is reported as 110 µM and the Activity [3] is reported as “Non-Toxic”. The CC50 at 24 h [4] was > 400 µM.
